Reference: ChEMBL document CHEMBL3112516, “Design, synthesis and biological evaluation of novel peptide MC62 analogues as potential antihyperglycemic agents” (2014)
The source made the active and inactive calls. The rule behind the calls is not given here.

Key:
Mus musculus [1] = assay: Antihyperglycemic activity in overnight fasted STZ-induced diabetic mouse model assessed as blood glucose level at 1 umol/kg, ip qd administered for 20 days measured after 20 days relative to control; format: functional
Mus musculus [2] = assay: Antihyperglycemic activity in STZ-induced mouse model assessed as increase in islet number at 1 umol/kg, ip by hematoxylin and eosin staining technique; format: functional, organism-based
Mus musculus [3] = assay: Antihyperglycemic activity in overnight fasted STZ-induced mouse model assessed as decrease in glycated hemoglobin level at 1 umol/kg, ip administered for 20 days measured on day 21; format: functional, organism-based
Mus musculus [4] = assay: Antihyperglycemic activity in overnight fasted STZ-induced mouse model assessed as reduction of fasting blood glucose level at 1 umol/kg, ip administered for 20 days measured every 5 days up to 20 days; format: functional, organism-based
Mus musculus [5] = assay: Antioxidant activity in STZ-induced mouse model assessed as MDA level at 1 umol/kg, ip administered for 20 days measured on day 21 (reference value: 12.49 +/- 1.35 nmol/ml); format: functional
Mus musculus [6] = assay: Antihyperglycemic activity in STZ-induced mouse model assessed as decrease in water intake at 1 umol/kg, ip administered for 20 days measured every 5 days up to 20 days; format: functional, organism-based
MIN6 [7] = assay: Inhibition of H202-induced apoptosis in mouse MIN6 cells assessed as change in nuclear fragmentation at 10 nM preincubated for 24 hrs followed by H202 challenge measured after 1 hr by Hoechst 33342 staining-based microscopic analysis; format: functional, cell-based
Mus musculus [8] = assay: Antioxidant activity in STZ-induced mouse model assessed as GSH level at 1 umol/kg, ip administered for 20 days measured on day 21 (reference value: 8.13 +/- 0.13 mg/ml); format: functional
Mus musculus [9] = assay: Antihyperglycemic activity in mouse assessed as decrease in blood glucose level at 1 umol/kg, ip pretreated with compound followed by glucose challenge measured after 30 to 60 mins by oral glucose tolerance test; format: functional, organism-based
Mus musculus [10] = assay: Antihyperglycemic activity in STZ-induced mouse model assessed as decrease in food intake at 1 umol/kg, ip administered for 20 days measured every 5 days up to 20 days; format: functional, organism-based
Mus musculus [11] = assay: Antihyperglycemic activity in STZ-induced mouse model assessed as decrease in body weight at 1 umol/kg, ip administered for 20 days measured every 5 days up to 20 days; format: functional, organism-based
Mus musculus [12] = assay: Antioxidant activity in STZ-induced mouse model assessed as GSH-PX level at 1 umol/kg, ip administered for 20 days measured on day 21 (reference value: 1449.23 +/- 49.42 U/ml); format: functional
MIN6 [13] = assay: Inhibition of palmitate-induced apoptosis in mouse MIN6 cells assessed as reduction of apoptotic cells at 10 nM preincubated for 24 hrs followed by palmitate challenge measured after 1 hr by Hoechst 33342 staining-based microscopic analysis; format: functional, cell-based
Mus musculus [14] = assay: Antioxidant activity in STZ-induced mouse model assessed as SOD level at 1 umol/kg, ip administered for 20 days measured on day 21 (reference value: 41.58 +/- 2.89 U/ml); format: functional

Substance	Activity (Mus musculus [1])	further results
H-GTNMKHMAGAA-OH	15.26 mmol/L	
H-KGNMKHMAGAA-OH	15.28 mmol/L	
H-KMNMKGMAGAA-OH	13.44 mmol/L	
H-KTGMKHMAGAA-OH	14.36 mmol/L	
H-KTMMKGMAGAA-OH	11.8 mmol/L	Activity (Mus musculus [2]): Active; Activity (Mus musculus [3]): Active; Activity (Mus musculus [4]): Active; Activity (Mus musculus [5]): 7.61 nmol/mL; Activity (Mus musculus [6]): Active; Activity (MIN6 [7]): Active; Activity (Mus musculus [8]): 12.14 mg/mL; Activity (Mus musculus [9]): Active; Activity (Mus musculus [10]): Active; Activity (Mus musculus [11]): Active; Activity (Mus musculus [12]): 1707.69 U/ml; Activity (MIN6 [13]): Active; Activity (Mus musculus [14]): 46.96 U/ml
H-KTNGKHMAGAA-OH	18.34 mmol/L	
H-KTNMGHMAGAA-OH	18.52 mmol/L	
H-KTNMKGMAGAA-OH	13.29 mmol/L	
H-KTNMKGMAGAM-OH	20.18 mmol/L	
H-KTNMKGMAGMA-OH	17.38 mmol/L	
H-KTNMKGMAMAA-OH	14.03 mmol/L	
H-KTNMKHGAGAA-OH	21.82 mmol/L	
H-KTNMKHMAGAA-OH	16.16 mmol/L	
H-KTNMKHMGGAA-OH	18.02 mmol/L	
H-MTNMKGMAGAA-OH	20.83 mmol/L	
